# Reference: EP4737453A1, “NOVEL SELENOPHENE DERIVATIVES” (Aigen Sciences Inc., priority 2023, dated 2025)
# pIC50: −log10 of the molar value.
# Columns and labels:
# [1] = molecular target: T1, SOS1 and KRAS G12D interaction (Homo sapiens, UniProt Q07889); type: biochemical
# T1 sequence (Q07889 564-1049 limits assumed): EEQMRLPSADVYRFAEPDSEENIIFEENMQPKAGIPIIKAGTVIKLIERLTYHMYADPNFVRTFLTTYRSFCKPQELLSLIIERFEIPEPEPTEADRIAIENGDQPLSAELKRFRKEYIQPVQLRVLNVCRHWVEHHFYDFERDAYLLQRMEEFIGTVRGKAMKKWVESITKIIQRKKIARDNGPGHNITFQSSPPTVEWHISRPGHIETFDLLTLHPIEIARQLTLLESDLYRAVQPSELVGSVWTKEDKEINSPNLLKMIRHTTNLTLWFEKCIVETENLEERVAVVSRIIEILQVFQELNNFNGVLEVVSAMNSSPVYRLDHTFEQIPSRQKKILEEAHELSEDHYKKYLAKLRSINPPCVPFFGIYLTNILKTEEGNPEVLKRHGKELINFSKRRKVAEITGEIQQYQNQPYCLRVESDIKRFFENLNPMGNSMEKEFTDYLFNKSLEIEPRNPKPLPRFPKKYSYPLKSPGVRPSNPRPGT
# NCI-H358 = assay: Cell Growth Inhibition Assay (3D CellTiter-Glo); type: cell-based; settings: Homo sapiens, NCI-H358, 288 h, read-out: Cell growth IC50
# Experimental: Cell Growth Inhibition Assay
# In this experimental example, the cell growth inhibitory effect of compounds according to the present invention and positive control compounds in tumor cell lines was examined.
# The cell culture medium containing the compound was replaced by 100 µL every 3 days. Luminescence analysis was performed using the 3D CellTiter-Glo Luminescent Cell Viability Assay Kit (Promega, USA) (Promega catalog number G9681). […] The percent cell growth inhibition rate was calculated from the measured relative luminescence unit (RLU) as follows. Inhibition rate = 1−((RLU compound−RLU blank)/(RLU control−RLU blank)) X 100 [formula]
# [2] = molecular target: T2, SOS2 and KRAS G12C interaction (Homo sapiens, UniProt Q07890); type: biochemical
# T2 sequence (Q07890 1-1332): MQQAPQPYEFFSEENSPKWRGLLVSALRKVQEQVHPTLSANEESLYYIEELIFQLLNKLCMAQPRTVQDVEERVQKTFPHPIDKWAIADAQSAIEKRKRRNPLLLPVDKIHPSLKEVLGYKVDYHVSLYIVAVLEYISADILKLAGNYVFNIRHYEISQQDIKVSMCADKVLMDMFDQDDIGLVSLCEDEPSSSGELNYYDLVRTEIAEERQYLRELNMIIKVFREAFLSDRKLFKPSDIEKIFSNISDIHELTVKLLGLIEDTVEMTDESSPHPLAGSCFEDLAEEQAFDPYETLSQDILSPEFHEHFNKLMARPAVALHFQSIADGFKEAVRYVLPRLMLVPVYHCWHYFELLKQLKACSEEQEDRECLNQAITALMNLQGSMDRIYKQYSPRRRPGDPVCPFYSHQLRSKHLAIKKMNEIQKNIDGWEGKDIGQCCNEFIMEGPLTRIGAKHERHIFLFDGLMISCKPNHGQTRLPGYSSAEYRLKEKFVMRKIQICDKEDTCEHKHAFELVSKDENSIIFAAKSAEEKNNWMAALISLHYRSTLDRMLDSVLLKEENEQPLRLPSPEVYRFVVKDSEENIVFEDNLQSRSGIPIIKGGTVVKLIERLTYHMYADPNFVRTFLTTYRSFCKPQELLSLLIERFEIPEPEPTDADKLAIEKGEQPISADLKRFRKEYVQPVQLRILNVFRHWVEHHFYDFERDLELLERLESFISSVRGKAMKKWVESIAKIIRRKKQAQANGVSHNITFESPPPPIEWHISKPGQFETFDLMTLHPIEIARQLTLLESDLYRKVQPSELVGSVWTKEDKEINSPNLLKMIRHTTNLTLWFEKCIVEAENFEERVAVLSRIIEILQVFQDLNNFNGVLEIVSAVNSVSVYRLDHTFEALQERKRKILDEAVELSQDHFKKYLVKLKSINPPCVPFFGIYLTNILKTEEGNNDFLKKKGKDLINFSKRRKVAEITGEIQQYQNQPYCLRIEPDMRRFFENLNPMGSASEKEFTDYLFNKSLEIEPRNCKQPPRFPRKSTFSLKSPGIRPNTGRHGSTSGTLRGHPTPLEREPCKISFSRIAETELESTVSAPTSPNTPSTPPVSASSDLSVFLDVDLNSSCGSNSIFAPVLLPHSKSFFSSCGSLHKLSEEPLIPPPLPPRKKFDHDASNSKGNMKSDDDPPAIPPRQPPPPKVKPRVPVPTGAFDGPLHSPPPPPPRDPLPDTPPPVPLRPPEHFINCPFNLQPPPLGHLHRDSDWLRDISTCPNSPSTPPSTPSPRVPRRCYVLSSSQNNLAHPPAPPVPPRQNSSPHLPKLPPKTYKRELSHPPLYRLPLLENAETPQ
# [3] = molecular target: T3, SOS1 and KRAS G12C interaction (Homo sapiens, UniProt Q07889); assay: Biochemical analysis of the inhibitory activity of SOS1 and KRAS G12C interaction (time-resolved fluorescence, 665/615 nm)
# T3 sequence (Q07889 564-1049 limits assumed): T1 sequence (Q07889 564-1049 limits assumed)
# Experimental: Biochemical analysis of the inhibitory activity of SOS1 and KRAS G12C interaction
# In this experimental example, the efficacy of the compound according to the present invention in inhibiting the binding of KRAS and SOS1 was biochemically measured. A KRAS G12C working solution was prepared by adding biotin-linked KRAS G12C protein and europium-linked streptavidin to assay buffer solution (20 mM HEPES, 50 mM NaCl, 200 µg/mL […] (BSA), 0.01% Pluronic F127). Then, SOS1, in which a tag consisting of six histidine residues is covalently linked, and anti-histidine tag antibody D2 were added to the assay buffer to prepare an SOS1 working solution. After these two working solutions were added to the wells of a well plate, solutions diluted according to the experimental concentration of the test compound from the 10 mM dimethyl sulfoxide (DMSO) stock solution of the Example compound or positive control compound were added to the wells in 100 nL aliquots using an Echo automatic dispenser (Beckman Coulter, USA), or a DMSO blank was added to the wells.
smiles,measurement,setting,value
"CNCc1ccccc1-c1c[se]c([C@@H](C)Nc2nc(C)nc3cc(OC)c(OC)cc23)c1 [Example 1, (R)-6,7-dimethoxyl-2-methyl-N-(1-(4-(2-((methylamino)methyl)phenyl)selenophen-2-yl)ethyl)quinazolin-4-amine]",pIC50,[1],8.08
same,pIC50,NCI-H358,7.68
same,pIC50,[2],4.61
same,pIC50,[3],7.73
